The values that follow come from patent publication US9598677B2, “Use of human biliverdin reductase and fragments thereof for the treatment of protein kinase C-delta and ERK related conditions” (University of Rochester, priority 2009, dated 2017).

Ends that are not written are not given here. * marks the point of attachment. Myristoyl = CCCCCCCCCCCCCC(=O)*

The test system of one assay is recombinant human PKC-δ. The experiment in a line: PKC-δ kinase assay in vitro (p81 filter / autoradiography). It counts as biochemical. The procedure:
Measurement of PKC-δ activity: In vitro kinase activity assays were performed with active recombinant human PKC-δ kinase (as a GST fusion protein). PKC-δ assay in vitro was performed using 5 ng purified enzyme in a 50 μl assay containing 50 mM HEPES pH 7.4, 10 mM MgCl2, 0.2 mM DTT, sonicated lipid activators (0.5 μg phosphatidylserine and 0.05 μg diacylglycerol) or lipid activators plus PMA (as indicated in appropriate experiments) and PKC-δ substrates. The reaction was started by the addition of 50 μM ATP labeled with 5 μCi [γ-^32P]-ATP. Incubation was performed for 15 min at 30° C., unless otherwise stated. The reaction was terminated on ice, either by the addition of Laemmli buffer followed by SDS-PAGE, transferred to PVDF membrane, and autoradiography, or by the addition of 1 volume 10% phosphoric acid for p81 transfer as described below. For autophosphorylation of PKC-δ 20 μM ATP was used to start the 40-min reaction.
When hBVR or its mutants were tested for their effect on PKC-δ activity, they were pre-incubated for 5 min at room temperature with the PKC prior to substrate addition. The hBVR-derived peptides were used at concentrations indicated in appropriate figures.
When hBVR or its mutants were assayed as the sole substrates for PKC, the incubation conditions were as described above and the incubation was for 40 min at 30° C. unless specified otherwise. The reaction was terminated by the addition of Laemmli buffer, and the reaction products were detected by SDS-PAGE, transfer to PVDF membrane, and autoradiography.
Measurement of PKC-δ activity: PKC-δ assay in vitro was performed using 0.1 ng/μl purified recombinant human PKC-δ kinase with reaction conditions specified by the manufacturer. Effector molecules such as hBVR or peptides were added 5 min prior to substrate. The reaction was started by the addition of [γ-^32P]-ATP (Lerner-Marmarosh et al., “Human Biliverdin Reductase: A Member of the Insulin Receptor Substrate Family with Serine/Threonine/Tyrosine Kinase Activity,” Proc. Natl. Acad. Sci. U.S.A. 102(20):7109-7114 (2005), which is hereby incorporated by reference in its entirety). Reaction products were detected either by gel electrophoresis and autoradiography or by the p81 filter assay. PKC-δ activity on agarose beads was also measured. Cell lysates were immunoprecipitated with anti-PKC-δ antibody followed by protein A/G agarose. The immunoprecipitates were used in kinase reactions containing 50 μM PKC-δ specific peptide substrate as above; incorporation of ^32P was measured by p81 method.

The target of a further assay is PKC-δ (Homo sapiens, UniProt Q05655). Description: PKC-δ activity assay in situ in 293A cells. It counts as cell-based. Set-up: The human PKC-δ open reading frame was also cloned in the same vectors; expressed in transfected cells; host or cells: HEK 293A. The following applies: myristoylated peptide, last 2 h of starvation, FIG. 5B. The procedure: The PKC-δ activity assay in situ was performed by a modification of procedures detailed by Williams and Schrier (Williams et al., Glucose-Induced Protein Kinase C Activity Regulates Arachidonic Acid Release and Eicosanoid Production by Cultured Glomerular Mesangial Cells,” J. Clin. Invest. 92:2889-2896 (1993), which is hereby incorporated by reference in its entirety). Cells were seeded into 48-well plates and transfected with 0.1 μg/well pcDNA3-hBVR. After 24 h, the medium was replaced with a starvation medium (0.1% serum) and incubation continued for another 24 h to synchronize cells. In some wells, PKC inhibitor Rottlerin (20 μM) was added 30 min before addition of PMA (100 nM) for 15 min. In some wells, hBVR-derived peptides were introduced to cells in their myristoylated form. Cells were washed with medium and incubated for 10 min at 30° C. in 50 μl of kinase assay buffer (137 mM NaCl, 5.4 mM KCl, 10 mM MgCl2, 0.3 mM Na2HPO4, 0.4 mM KH2PO4, 25 mM β-glycerophosphate, 5.5 mM D-glucose, 5 mM EGTA, 1 mM CaCl2, 20 mM HEPES (pH 7.2), 50 μg/ml digitonin, 120 μg/ml of PKC-δ specific substrate (ARRKRKGSFFGG; SEQ ID NO: 52) and 100 μM ATP labeled with 10 μCi/ml [γ-^32P]-ATP). The reaction was stopped with the addition of 25 μl of ice-cold 30% (wt/vol) TCA. The TCA-soluble fraction samples were transferred to p81 phospho-cellulose filters. […]
PKC-δ, sequence (Q05655 whole entry): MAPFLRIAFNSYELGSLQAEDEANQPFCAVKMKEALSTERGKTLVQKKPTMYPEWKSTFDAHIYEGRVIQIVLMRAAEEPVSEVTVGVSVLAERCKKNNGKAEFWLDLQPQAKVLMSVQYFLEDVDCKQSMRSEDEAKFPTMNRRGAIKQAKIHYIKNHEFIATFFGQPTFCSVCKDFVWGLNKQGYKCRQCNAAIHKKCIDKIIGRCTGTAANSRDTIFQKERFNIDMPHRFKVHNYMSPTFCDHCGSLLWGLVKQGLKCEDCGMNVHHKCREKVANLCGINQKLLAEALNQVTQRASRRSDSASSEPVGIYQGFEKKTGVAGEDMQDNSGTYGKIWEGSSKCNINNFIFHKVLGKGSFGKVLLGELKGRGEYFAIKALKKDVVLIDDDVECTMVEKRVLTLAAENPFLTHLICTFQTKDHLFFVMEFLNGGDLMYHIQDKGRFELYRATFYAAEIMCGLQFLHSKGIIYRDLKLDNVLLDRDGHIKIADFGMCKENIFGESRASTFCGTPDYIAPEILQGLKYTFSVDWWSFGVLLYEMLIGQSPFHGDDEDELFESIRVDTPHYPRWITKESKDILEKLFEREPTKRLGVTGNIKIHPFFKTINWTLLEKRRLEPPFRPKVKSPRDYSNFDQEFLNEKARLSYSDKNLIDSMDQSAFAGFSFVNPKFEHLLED

As for KRNRYLSF (Myristoyl-KRNRYLSF), the “inhibition of phosphorylation of the commercial substrate” value with recombinant human PKC-δ (50 μM substrate/10 μM inhibitor, FIG. 5A) is reported as “More than 90%”. Besides, the “sensitivity of PKC-δ activity to the inhibitory peptide” value with recombinant human PKC-δ (MBP substrate, increasing peptide concentrations, FIG. 5D) is “most sensitive”. In addition, the “PKC-δ activity in cells transfected with pcDNA-PKC-δ and stimulated with PMA” value in the assay with PKC-δ was “inhibitory activity”.
